EP4549446A1 (priority 2023, dated 2025)

What was measured:
Nrf2 = assay: Nrf2-ARE induction, luciferase assay in AREc32 cells; type: cell-based; conditions: CD: concentration required to double the specific activity of the luciferase gene, 24 h treatment
AML cell lines = type: cell-based, human
[1] = SFNA/αCD association constant by 1H NMR titration in D2O; type: physicochemical; conditions: 298 K, SFNA 2 mM against increasing α-cyclodextrin
Procedure: The preparation of inclusion complexes was carried out by a physical mixture in water between α-cyclodextrin (host) and the sulforaphane analogue (guest; SFNA). The confirmation of complex formation, its stoichiometry, association constant (Kas), and degree of degradation were determined using ^1H NMR spectroscopy.
Determination of the SFNA/αCD association constant. The determination of association constants (Kas, M^-1) for the SFNA/αCD complex was performed through ^1H NMR titration experiments in D2O. The association constants at 298 K were experimentally determined by measuring the changes in chemical shift (Δδ, ppm) of the ^1H NMR signals using fixed solutions of the analogues against increasing concentrations of α-cyclodextrin. In a typical titration experiment, a 2 mM solution of the SFN analogue in D2O was prepared, and a 500 µL aliquot was transferred to the NMR tube, and the initial spectrum was recorded. Furthermore, a solution of a mixture (SFNA at 2 mM/ αCD at 16.11 mM) was prepared and added in 10 µL aliquots to the NMR tube, keeping the analogue concentration constant. The added amounts of α-cyclodextrin were increased until complete complexation of the analogue, and ^1H NMR spectra were recorded after each addition. The mathematical treatment of the curves of chemical shift variations of the analogue proton signals (Δδ) against increasing α-cyclodextrin concentrations using an iterative least-squares fitting procedure allowed for the determination of the Kas values for the analogues (Table 1).

[2] = test system: normal cell subpopulations from healthy donors; assay: Ex vivo cell viability by flow cytometry on normal cells; type: cell-based, human; conditions: normal cell subpopulations from healthy donors including hematopoietic precursor cells, 18 h
Procedure: Primary human cells from healthy donors were used in ex vivo assays. The mononuclear fraction was extracted with Ficoll-Paque by density gradient centrifugation and subsequently differentiated from the other cell populations by flow cytometry using an appropriate combination of antibodies: anti-human CD45-Pacific Blue, CD34-FITC, CD19-APC-H7 (BD Biosciences, San Jose, CA) and CD3-FITC (Invitrogen).
Cell viability and cell lysis were also assessed by annexin V/7-AAD using flow cytometry. Donor cells were analysed using 7-AAD a combination of monoclonal antibodies (anti-CD45-Pacific Blue, anti-CD34-FITC, anti-CD3-FITC, anti-CD19-APC-H7). The cells were acquired with the FACSCanto II flow cytometer (BD Biosciences) and analysed with the Infinicyt™ software (Cytognos, Spain).

| Compound | EC (2-fold) (Nrf2; read-out: CD ± SEM) | proapoptotic effect on AML cell lines (AML cell lines) | Kas [1] | viability of normal healthy cells [2] | CD ± SEM (Nrf2) |
| --- | --- | --- | --- | --- | --- |
| C[S+]([O-])CCCCN=C=S (stereo not shown) [SFN-1, sulforaphane, reference compound] | 0.44 ± 0.28 µM |  |  |  |  |
| CCOP(=O)(OCC)OCCCN=C=S [SFN-10, Diethyl (3-isothiocyanatopropyl) phosphate] |  | partially selective proapoptotic effect | 34,87 M^-1 | not affected | 0.56 ± 0.07 µM |
| CCOP(=O)(CCCCN=C=S)OCC [SFN-14, Diethyl (4-isothiocyanatobutyl)phosphonate] |  | partially selective proapoptotic effect | 135,95 M^-1 |  |  |
| CC(C)OP(=O)(OCCCN=C=S)OC(C)C [SFN-15, Diisopropyl (3-isothiocyanatopropyl) phosphate] |  |  | 101,95 M^-1 |  | 0.52 ± 0.08 µM |
| O=P(OCCCN=C=S)(Oc1ccccc1)Oc1ccccc1 [SFN-16, Diphenyl 3-isothiocyanatopropyl phosphate] |  |  |  |  | 1.55 ± 0.45 µM |
